The target of test [1] is T1, Ba/F3-KDR-transfected cells (Homo sapiens, UniProt P35968).
T1 construct: BAF3-KDR (MIN IL3) pIC50; other: minus IL3
The test can be described thus: Ba/F3-KDR (minus IL3) cellular proliferation assay, Alamar Blue. The test is classed as cell-based. The essentials: (§1)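 Cells grown with test compound at 37° C and 5% CO2 for 24 hours were given a resazurin/ferricyanide/ferrocyanide reagent for 4 hours before fluorescence (540/590 nm) was recorded.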
On the technique in general: The colour change of resazurin is a common sign of viable cells or microbes.

For test [2], the target named is FGFR3 (h) (Homo sapiens, UniProt P22607). Nature of the test: FGFR3 (enzymatic assay), TR-FRET. The test is classed as biochemical. Particulars: read-out: FGFR 3 pIC50 (converted). The source says:
Time-Resolved Fluorescence Resonance Energy Transfer (TR-FRET) signal (ex340 nm.

In test [3] the target is FGFR1 (h) (Homo sapiens, UniProt P11362). Nature of the test: FGFR1 (enzymatic assay), TR-FRET. The test is classed as biochemical. To be noted: read-out: FGFR 1 pIC50 (converted). In general terms: In TR-FRET formats the signal depends on donor and acceptor labels being close together.
FGFR1 (h), sequence (P11362 22-822): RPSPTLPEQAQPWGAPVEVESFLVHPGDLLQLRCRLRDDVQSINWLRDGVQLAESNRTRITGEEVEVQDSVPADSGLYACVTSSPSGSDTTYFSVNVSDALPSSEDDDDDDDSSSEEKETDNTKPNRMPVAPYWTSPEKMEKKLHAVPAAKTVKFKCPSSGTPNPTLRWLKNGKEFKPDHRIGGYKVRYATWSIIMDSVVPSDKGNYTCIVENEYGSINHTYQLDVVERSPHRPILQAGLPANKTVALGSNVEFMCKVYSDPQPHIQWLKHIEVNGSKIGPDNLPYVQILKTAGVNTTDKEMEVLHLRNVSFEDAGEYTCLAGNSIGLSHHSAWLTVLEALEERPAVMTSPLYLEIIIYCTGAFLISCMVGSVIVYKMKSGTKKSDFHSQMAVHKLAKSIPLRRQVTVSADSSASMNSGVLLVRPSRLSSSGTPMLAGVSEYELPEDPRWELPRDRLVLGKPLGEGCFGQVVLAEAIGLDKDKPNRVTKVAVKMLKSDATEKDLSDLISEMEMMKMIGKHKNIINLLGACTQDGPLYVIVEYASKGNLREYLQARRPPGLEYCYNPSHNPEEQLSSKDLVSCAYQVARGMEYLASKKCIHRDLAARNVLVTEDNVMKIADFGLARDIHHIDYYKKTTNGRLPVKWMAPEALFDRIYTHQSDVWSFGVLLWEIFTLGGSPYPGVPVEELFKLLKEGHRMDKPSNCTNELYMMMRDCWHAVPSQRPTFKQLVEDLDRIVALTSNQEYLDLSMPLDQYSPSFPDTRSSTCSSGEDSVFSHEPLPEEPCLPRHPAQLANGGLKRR
Test [4] addresses T2, Ba/F3-FGFR3-transfected cells (Homo sapiens, UniProt P22607).
T2 construct: BAF3-FGFR3 (MIN IL3) pIC50; other: minus IL3
The test can be described thus: Ba/F3-FGFR3 (minus IL3) cellular proliferation assay, Alamar Blue. It counts as cell-based. The essentials:
(§2)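 Ba/F3 cells transfected with FGFR3 were seeded at 20000 cells/well in phenol red-free RPMI-1640 with 10% FBS over compound in DMSO and kept 24 hours at 37° C, 5% CO2. Alamar Blue (resazurin) was then added for 4 hours and fluorescence read at ex 540/em 590 nm. The counterscreen repeated this with 10 ng/ml murine IL3.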

The target of test [5] is Ba/F3-FGFR4-transfected cells (Homo sapiens, UniProt P22455). Nature of the test: Ba/F3-FGFR4 cellular proliferation assay, Alamar Blue. The test is classed as cell-based. A digest of the protocol: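 Here, cells seeded at 20000 per well were treated 24 hours with compound, then given a 4-hour Alamar Blue incubation at 37° C before RFU measurement at ex. 540 nm and em. 590 nm.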

Test [6] deals with KDR (h) (Homo sapiens, UniProt P35968). Nature of the test: KDR (VEGFR2) (enzymatic assay), TR-FRET. To be noted: read-out: VEGFR 2 (KDR) pIC50 (converted). It counts as biochemical. The essentials: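 Low-ATP (3 μM) TR-FRET kinase assay using 500 nM Btn-Flt3 peptide and 150 ng/ml enzyme, run 2 h at room temperature with 6 mM MnCl2 and 0.1 mM Na3VO4. Signal from Eu-anti-P-Tyr/SA-XL-665 is recorded in RFU.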

The test system of test [7] is Ba/F3-FGFR3-transfected cells. Nature of the test: Ba/F3-FGFR3 (plus IL3) cellular proliferation assay, counterscreen with 10 ng/ml murine IL3. It counts as cell-based. Particulars: plus IL3 (10 ng/ml murine IL3, counterscreen); read-out: BAF3-FGFR3 (PLUS IL3) pIC50 (converted). The essentials: as §2
On the technique in general: Counterscreens check selectivity or assay interference.

In test [8] the test system is Ba/F3-KDR-transfected cells. Nature of the test: Ba/F3-KDR (plus IL3) cellular proliferation assay, counterscreen with 10 ng/ml murine IL3. Particulars: plus IL3 (10 ng/ml murine IL3, counterscreen); read-out: BAF3-KDR (PLUS IL3) pIC50 (converted). The test is classed as cell-based. The essentials:
as §1

In test [9] the target is FGFR4 (h) (Homo sapiens, UniProt P22455). Nature of the test: FGFR4 (enzymatic assay), TR-FRET. To be noted: FGFR 4 pIC50, enzymatic assay. The test is classed as biochemical.
FGFR4 (h), sequence (P22455 22-802): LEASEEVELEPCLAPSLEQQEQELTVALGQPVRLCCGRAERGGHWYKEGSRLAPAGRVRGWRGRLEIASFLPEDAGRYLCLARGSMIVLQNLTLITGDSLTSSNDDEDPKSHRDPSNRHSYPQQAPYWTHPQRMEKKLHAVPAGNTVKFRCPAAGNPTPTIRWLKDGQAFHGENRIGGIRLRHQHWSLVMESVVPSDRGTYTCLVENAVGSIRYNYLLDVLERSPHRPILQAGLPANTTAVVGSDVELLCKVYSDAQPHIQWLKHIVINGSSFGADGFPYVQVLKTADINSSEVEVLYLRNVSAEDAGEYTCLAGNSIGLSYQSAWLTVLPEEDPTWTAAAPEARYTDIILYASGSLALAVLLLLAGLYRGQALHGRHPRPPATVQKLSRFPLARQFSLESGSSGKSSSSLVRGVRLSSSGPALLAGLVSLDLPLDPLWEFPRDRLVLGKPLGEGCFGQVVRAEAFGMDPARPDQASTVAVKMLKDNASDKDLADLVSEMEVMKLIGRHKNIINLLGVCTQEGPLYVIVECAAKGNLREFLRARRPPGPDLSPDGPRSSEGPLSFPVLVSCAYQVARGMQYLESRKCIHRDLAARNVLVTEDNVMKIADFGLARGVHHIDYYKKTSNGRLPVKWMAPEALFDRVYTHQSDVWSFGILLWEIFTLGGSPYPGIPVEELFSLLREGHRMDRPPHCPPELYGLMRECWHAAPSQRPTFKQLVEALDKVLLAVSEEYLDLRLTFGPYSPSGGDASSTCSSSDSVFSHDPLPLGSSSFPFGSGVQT

Molecules are shown by their SMILES.

T2 sequence (P22607 whole entry, change not shown): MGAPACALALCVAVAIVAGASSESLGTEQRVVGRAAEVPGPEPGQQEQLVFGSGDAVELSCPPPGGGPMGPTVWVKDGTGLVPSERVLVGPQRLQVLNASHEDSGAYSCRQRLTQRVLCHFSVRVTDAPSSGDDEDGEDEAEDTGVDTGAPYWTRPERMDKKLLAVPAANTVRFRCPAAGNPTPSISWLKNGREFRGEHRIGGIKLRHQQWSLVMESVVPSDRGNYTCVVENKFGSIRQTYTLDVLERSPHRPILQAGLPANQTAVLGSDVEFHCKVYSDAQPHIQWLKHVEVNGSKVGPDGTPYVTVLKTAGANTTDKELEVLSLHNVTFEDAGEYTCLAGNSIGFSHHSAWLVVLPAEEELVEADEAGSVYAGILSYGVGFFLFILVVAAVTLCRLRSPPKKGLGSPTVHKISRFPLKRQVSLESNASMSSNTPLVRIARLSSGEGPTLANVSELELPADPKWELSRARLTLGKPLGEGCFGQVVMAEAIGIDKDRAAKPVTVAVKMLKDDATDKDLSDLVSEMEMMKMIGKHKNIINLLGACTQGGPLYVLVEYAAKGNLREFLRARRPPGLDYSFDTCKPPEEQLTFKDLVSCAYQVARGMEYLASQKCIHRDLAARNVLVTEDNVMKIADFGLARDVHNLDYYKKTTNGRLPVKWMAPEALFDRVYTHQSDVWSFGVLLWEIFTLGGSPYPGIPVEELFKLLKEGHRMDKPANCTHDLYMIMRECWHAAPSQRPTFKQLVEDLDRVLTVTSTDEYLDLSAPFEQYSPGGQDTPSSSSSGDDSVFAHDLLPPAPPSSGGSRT
FGFR3 (h), sequence (P22607 23-806): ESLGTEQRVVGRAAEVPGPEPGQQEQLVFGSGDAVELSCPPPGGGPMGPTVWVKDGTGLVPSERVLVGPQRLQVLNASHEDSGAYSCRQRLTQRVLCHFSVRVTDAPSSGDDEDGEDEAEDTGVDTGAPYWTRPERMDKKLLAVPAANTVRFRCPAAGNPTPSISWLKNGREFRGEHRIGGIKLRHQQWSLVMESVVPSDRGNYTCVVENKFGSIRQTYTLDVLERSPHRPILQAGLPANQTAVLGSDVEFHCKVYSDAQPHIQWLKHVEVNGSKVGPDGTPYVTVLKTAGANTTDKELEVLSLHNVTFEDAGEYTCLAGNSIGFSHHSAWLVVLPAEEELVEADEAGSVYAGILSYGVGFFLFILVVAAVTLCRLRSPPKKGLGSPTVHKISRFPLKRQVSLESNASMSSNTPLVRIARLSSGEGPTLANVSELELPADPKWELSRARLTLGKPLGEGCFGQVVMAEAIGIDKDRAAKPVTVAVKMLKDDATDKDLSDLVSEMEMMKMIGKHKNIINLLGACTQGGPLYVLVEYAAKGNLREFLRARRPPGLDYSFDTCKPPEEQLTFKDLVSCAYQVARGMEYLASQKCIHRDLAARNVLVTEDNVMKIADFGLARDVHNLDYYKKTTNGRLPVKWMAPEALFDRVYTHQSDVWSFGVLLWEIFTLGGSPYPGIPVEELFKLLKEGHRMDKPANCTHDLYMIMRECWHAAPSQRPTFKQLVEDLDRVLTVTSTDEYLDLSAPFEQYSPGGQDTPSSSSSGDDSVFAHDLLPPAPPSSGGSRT
T1 sequence (P35968 whole entry, change not shown): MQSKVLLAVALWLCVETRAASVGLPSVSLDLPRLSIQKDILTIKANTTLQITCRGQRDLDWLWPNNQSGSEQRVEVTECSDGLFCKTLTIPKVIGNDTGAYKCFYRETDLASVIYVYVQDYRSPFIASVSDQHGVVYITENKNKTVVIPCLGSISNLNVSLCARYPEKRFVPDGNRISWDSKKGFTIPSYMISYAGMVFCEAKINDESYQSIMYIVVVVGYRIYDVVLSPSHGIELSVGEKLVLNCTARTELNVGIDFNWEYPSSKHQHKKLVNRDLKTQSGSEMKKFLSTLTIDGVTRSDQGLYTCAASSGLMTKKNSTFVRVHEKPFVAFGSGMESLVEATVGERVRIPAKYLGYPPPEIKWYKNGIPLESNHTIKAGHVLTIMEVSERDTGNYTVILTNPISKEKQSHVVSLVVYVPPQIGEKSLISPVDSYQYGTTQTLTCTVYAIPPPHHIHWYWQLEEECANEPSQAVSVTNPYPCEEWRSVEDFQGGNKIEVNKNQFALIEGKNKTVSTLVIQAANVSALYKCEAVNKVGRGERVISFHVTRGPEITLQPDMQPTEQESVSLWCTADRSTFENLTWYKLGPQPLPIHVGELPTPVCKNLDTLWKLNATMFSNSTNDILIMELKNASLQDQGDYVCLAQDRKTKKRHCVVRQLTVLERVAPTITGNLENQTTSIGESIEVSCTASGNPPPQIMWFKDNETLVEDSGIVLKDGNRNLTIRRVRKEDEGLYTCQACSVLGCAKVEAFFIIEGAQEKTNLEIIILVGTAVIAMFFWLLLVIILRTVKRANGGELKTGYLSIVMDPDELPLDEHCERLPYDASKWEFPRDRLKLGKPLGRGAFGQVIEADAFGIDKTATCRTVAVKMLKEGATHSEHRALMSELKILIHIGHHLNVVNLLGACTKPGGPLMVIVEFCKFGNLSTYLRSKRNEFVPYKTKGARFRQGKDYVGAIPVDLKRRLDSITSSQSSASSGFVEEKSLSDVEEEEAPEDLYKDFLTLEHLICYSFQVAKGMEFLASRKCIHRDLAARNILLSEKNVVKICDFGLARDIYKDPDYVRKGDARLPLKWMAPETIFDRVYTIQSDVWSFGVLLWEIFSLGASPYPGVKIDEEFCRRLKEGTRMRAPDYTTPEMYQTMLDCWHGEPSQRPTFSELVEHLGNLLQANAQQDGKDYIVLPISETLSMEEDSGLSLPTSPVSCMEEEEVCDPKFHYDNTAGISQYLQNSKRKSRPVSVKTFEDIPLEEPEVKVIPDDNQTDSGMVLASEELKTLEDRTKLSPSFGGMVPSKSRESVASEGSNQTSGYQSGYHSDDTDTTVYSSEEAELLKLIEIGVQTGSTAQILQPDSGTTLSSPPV

For `COc1cc(OC)c(F)c(/N=c2\ccc3ncc(-c4cnn(C)c4)nc3n2C)c1F` (single isomer, unassigned) [Compound 255], the “BAF3-KDR (MIN IL3) pIC50” value in test [1] came to 6.22. The IC50 in test [2] is 0.363 nM; in [3], 0.214 nM; in test [6], 3.09 nM; in test [7], above 10000 nM; in [8], above 10000 nM; in test [9], 0.513 nM. For the same molecule, in test [4], the “BAF3-FGFR3 (MIN IL3) pIC50” value worked out at 8.38. Besides, the “BAF3-FGFR4 pIC50” value in test [5] came out at 7.34.
Consider `COc1cc(/N=c2\ccc3ncc(-c4cnn(CC(C)(C)O)c4)nc3n2CC2CCC(=O)N2)c(F)c(OC)c1` (stereo not drawn) [Compound 286], for which, in test [1], the “BAF3-KDR (MIN IL3) pIC50” value is 6.23. Further, the IC50 in [2] is 1.35 nM; in test [3], around 1.55 nM; in test [6] it was 11 nM; in test [7], above 10000 nM; in [8], above 10000 nM; in test [9] it was 3.89 nM. In test [4], the “BAF3-FGFR3 (MIN IL3) pIC50” value was found to be 7.66. Also, the “BAF3-FGFR4 pIC50” value in [5] turned out to be 6.69.
Regarding `CNCCn1ccnc1CN(c1ccc2ncc(-c3cnn(C)c3)nc2n1)c1cc(OC)cc(OC)c1F` [Compound 289], in test [1], the “BAF3-KDR (MIN IL3) pIC50” value turned out to be 5.28. Moreover, the IC50 is 12.9 nM in test [2]; 4.37 nM in test [3]; 97.7 nM in [6]; above 10000 nM in test [7]; above 10000 nM in [8]; 57.5 nM in test [9]. For the same molecule, the “BAF3-FGFR3 (MIN IL3) pIC50” value in [4] worked out at 6.92. Besides, the “BAF3-FGFR4 pIC50” value in test [5] was found to be 6.07.
With `COc1cc(OC)cc(N(CC(C)(C)O)c2ccc3ncc(-c4cnn(C)c4)nc3n2)c1` [Compound 276], the “BAF3-KDR (MIN IL3) pIC50” value in [1] came to 5.02. Further, the IC50 is 8.32 nM in [2]; 14.5 nM in test [3]; 141 nM in test [6]; above 10000 nM in [7]; above 10000 nM in [8]; 69.2 nM in test [9]. The “BAF3-FGFR3 (MIN IL3) pIC50” value in test [4] is given as 6.41. For the same molecule, in test [5], the “BAF3-FGFR4 pIC50” value is listed as 5.82.
In the case of `CNC(=O)c1cc(F)cc(N(Cc2ncc[nH]2)c2ccc3ncc(-c4cnn(C)c4)nc3n2)c1` [Compound 261], in [1], the “BAF3-KDR (MIN IL3) pIC50” value turned out to be 6.01. Moreover, the IC50 was 1.91 nM in test [2]; 1.48 nM in [3]; 10.2 nM in test [6]; above 10000 nM in test [7]; above 10000 nM in test [8]; 6.03 nM in test [9]. In [4], the “BAF3-FGFR3 (MIN IL3) pIC50” value is listed as around 7.74. Further, in test [5], the “BAF3-FGFR4 pIC50” value was determined as 6.77.
With `COc1cc(/N=c2\ccc3ncc(-c4cnn(C)c4)nc3n2CC2CCC(=O)N2CCO)c(F)c(OC)c1` (stereo not drawn) [Compound 247], in [1], the “BAF3-KDR (MIN IL3) pIC50” value was 5.63. In addition, the IC50 in test [2] is 1.32 nM; in test [3], 0.603 nM; in test [6] it was 12 nM; in [7], above 10000 nM; in test [8], above 10000 nM; in test [9], 1.82 nM. The “BAF3-FGFR3 (MIN IL3) pIC50” value in test [4] is around 7.7. In addition, the “BAF3-FGFR4 pIC50” value in [5] is recorded as 6.87.
Consider `COc1cc(OC)c(F)c(N(c2ccc3ncc(-c4cnn(C)c4)nc3n2)C(C)c2ncc[nH]2)c1` (stereo not drawn) [Compound 287], for which, in [1], the “BAF3-KDR (MIN IL3) pIC50” value stood at 6.62. In addition, the IC50 was 2.14 nM in test [2]; 0.851 nM in [3]; 17.4 nM in test [6]; above 10000 nM in test [7]; above 10000 nM in [8]; 2.14 nM in [9]. Moreover, the “BAF3-FGFR3 (MIN IL3) pIC50” value in test [4] was around 8.54. For the same molecule, the “BAF3-FGFR4 pIC50” value in test [5] is recorded as 8.08.
For the molecule `COc1cc(OC)c(F)c(N(Cc2c[nH]nn2)c2ccc3ncc(-c4cnn(C)c4)nc3n2)c1` [Compound 258], the “BAF3-KDR (MIN IL3) pIC50” value in test [1] turned out to be 6.02. The IC50 in [2] is 0.676 nM; in test [3], 0.55 nM; in [6], 12.3 nM; in test [7] it was above 10000 nM; in test [8], above 10000 nM; in [9] it was 1.32 nM. Moreover, the “BAF3-FGFR3 (MIN IL3) pIC50” value in [4] stood at 7.91. In addition, the “BAF3-FGFR4 pIC50” value in [5] stood at 7.03.

The record behind these values is US9309242B2, “Substituted pyrido[2,3-b]pyrazines as FGFR kinase inhibitors” (priority 2011, dated 2016).
